Reference: patent US20190211317A1, “PEPTIDES AND NANOPARTICLES FOR INTRACELLULAR DELIVERY OF GENOME-EDITING MOLECULES” (Aadigen, LLC, priority 2016, published 2019)

Key:
[1] = test system: endogenous EMX1 gene in U2OS, HEPG2, K562 cells and primary human fibroblasts; assay: EMX1 editing from CPP delivery of CAS9 mRNA/gRNA (T7E1); assay type: cell-based
Procedure: CPP/CAS9 mRNA/gRNA complexes were formed by mixing the CAS9 mRNA (0.5 μg) and gRNA (5 μg) with CPP at a 20:1 molar ratio of CPP:cargo and incubating for 30 min at 37° C. prior to cell transfection. Suspension and adherent cells were transfected according to the protocols described in Example 13a. RNAiMAX-mediated delivery (Invitrogen Thermo Fisher France) was used as a control. EMX1 gene editing was analyzed at day 3 and day 6 by T7E1 assay and quantified using a Fragment Analyzer System.

JURKAT and K562 cells = assay: Toxicity of CPP/CAS9/gRNA complexes in T cell lines (MTT assay); assay type: cell-based, human; conditions: up to 100 nM, 24 h
Procedure: A total of 30,000 JURKAT or K562 cells seeded in 24-well plates the day prior to transfection were incubated with increasing concentrations of CPP/CAS9/gRNA complexed at 20:1 molar ratio (CPP to CAS9/gRNA) ranging from 1 nM to 200 nM for 30 min prior to addition of medium to reach a final 10% concentration of FCS. Cytotoxic response was measured 24 hours later by colorimetric MTT assay (Sigma, Germany). For MTT assay, cell culture medium was removed and replaced with PBS containing 2.5 mg/ml of MTT for 4 hours. Results correspond to the average of 3 independent experiments.

[2] = test system: EGFP reporter gene in EGFP-U2OS, EGFP-HEK, EGFP-JURKAT cells; assay: EGFP reporter gene disruption from CPP delivery of CAS9:sgRNA (flow cytometry); assay type: cell-based, human; conditions: for decrease in EGFP expression: CAS9:gRNA 50 nM, CPP:cargo 20:1;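 for all read-outs here: cells carrying one integrated EGFP reporter received peptide-complexed CAS9 preloaded 1:1 with EGFP sgRNA, cultured 72 h, then EGFP level read by flow cytometry, lipofectamine 2000 and RNAiMAX as positive controls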
Procedure: Efficacy of CPP-mediated delivery was quantified using a well-established CAS9-induced gene disruption method (Fu et al, 2013, supra), by targeting a specific site in the exogenous EGFP gene reporter in three human cell lines expressing EGFP (GFP-U2OS, EGFP-HEK, EGFP-JURKAT).
Stock solutions of amphipathic peptides were prepared at 1 mg/mL in distilled water and sonicated for 10 min. CAS9 protein was preloaded with purified EGFP sgRNA at a molar ratio of 1:1 and incubated for 10 min prior to forming complexes with the peptides. Preloaded CAS9/gRNA complexes (10 nM, 25 nM, and 50 nM) were mixed with CPPs at 5:1, 10:1 and 20:1 molar ratios of CPP to cargo and incubated for 30 min at 37° C. prior to cell transfection.
Cell line containing a single integrated EGFP reporter gene (GFP-U2OS, EGFP-HEK and EGFP-JURKAT) were cultured in Dulbecco's Modified Eagle's Medium (DMEM), supplemented with 2 mM glutamine, 1% antibiotics (streptomycin 10,000 μg/mL, penicillin, 10,000 IU/mL) and 10% (w/v) foetal calf serum (FCS) at 37° C. in a humidified atmosphere containing 5% CO2. A total of 150,000 cells seeded in a 35 mm dish the day prior to transfection were grown to 50-60% confluence and overlaid with 200 μl of preformed complexes, incubated for 3-5 min, then 400 μl of DMEM was added. After 30 min incubation at 37° C., 1 mL of fresh DMEM containing 16% FCS was added to reach a final FCS concentration of 10%, without removing the overlay of CPP/CAS9-gRNA complexes. Cells were returned to the incubator for 72 hours.
CAS9-induced double-strand break formation was analyzed using flow cytometry by monitoring level of EGFP expression. […] Both lipofectamine 2000 and RNAiMAX delivery methods were used as positive controls.

[3] = test system: endogenous EMX1, AAVS and HPRT genes in U2OS and Human (H9) embryonic stem cells; assay: Delivery of multiple RGEN:gRNA complexes: EMX1, AAVS, HPRT editing in U2OS and H9 ES cells (T7E1); assay type: cell-based
Procedure: (§1) RNAiMAX delivery method was used as a positive control.
(§2) U2OS cells were treated as described previously. H9 embryonic stem cells were cultured in Dulbecco's modified Eagle's medium with 4 mM L-glutamine adjusted to contain 1.5 g/L sodium bicarbonate and 4.5 g/L glucose and supplemented with 0.1 mM 2-mercaptoethanol, 85%; and 15% ES-Cell Qualified fetal bovine serum. […] CAS9-induced double-strand break formation followed by repair through NHEJ was analyzed 72 hr after transfection by T7E1 assay and quantified using Fragment Analyzer System. The deletion (indel) frequencies in EMX1, AAVS and HPRT genes were quantified using T7E1 assay. Data for on-target mutations induced by RGEN:gRNA are reported as an average of 3 separate experiments.

[4] = test system: endogenous EMX1 gene in primary human T cells; assay: EMX1 editing in primary human T cells with CAS9 mRNA, protein or plasmid plus gRNA (T7E1); assay type: cell-based; conditions: CAS9-expressing plasmid and gRNA; day 3
Procedure: CPP/CAS9 mRNA/gRNA complexes were formed by mixing the CAS9 mRNA (0.5 μg) and gRNA (5 μg) with CPP at a 20:1 molar ratio of CPP to nucleic acid (mRNA+gRNA) and incubating for 30 min at 37° C. prior to cell transfection. CPP/plasmid/gRNA complexes were formed by mixing CAS9 expressing plasmid (Addgene MLM3639-Plasmid #42252) (0.5 μg) and gRNA (5 μg) with CPP at a 20:1 molar ratio of CPP to nucleic acid (plasmid+gRNA) and incubating for 30 min at 37° C. prior to cell transfection. CPP/CAS9/gRNA complexes were formed by mixing preloaded CAS9/gRNA complexes (2.5 μg/5 μg CAS9/gRNA) with CPP at a 20:1 molar ratio of CPP to complex and incubating for 30 min at 37° C. prior to cell transfection.
T cells were transfected according to the protocol for suspension cells described in Example 13a. Lipofectamine 2000- and RNAiMAX-mediated delivery methods (Invitrogen Thermo Fisher France) were included as controls. EMX1 gene editing was analyzed at day 3, day 6, and day 10 by T7E1 assay and quantified using a Fragment Analyzer System.

Swiss mice = conditions: other tissues examined
Procedure: At 72 hours following injection, animals were sacrificed and tissues including lung, liver, brain, kidney, heart, spleen, blood, and pancreas were collected. Tissues were homogenized and CAS9 expression was analyzed by western blot on protein extract using antibody against CRISPR/Cas9 (Diagenode cat. No. C15200223) or by ELISA using Cas9 monoclonal antibody (SBI clone 7A9).

U2OS cells = conditions: CAS9 mRNA 0.2 μg and 0.5 μg; 20:1; 72 h
Procedure: U2OS cells were cultured in Dulbecco's Modified Eagle's Medium (DMEM), supplemented with 2 mM glutamine, 1% antibiotics (streptomycin 10,000 μg/mL, penicillin, 10,000 IU/mL) and 10% (w/v) foetal calf serum (FCS), at 37° C. in a humidified atmosphere containing 5% CO2. […] After 20 min incubation at 37° C., 1 mL of fresh DMEM containing 16% FCS was added in order to reach a final FCS concentration of 10%, without removing the overlay of complexes. Cells were returned to the incubator for 72 hours. CAS9 expression level was quantified by western blot on protein extract using antibody against CRISPR/Cas9 (Diagenode cat. No. C15200223).

[5] = test system: endogenous EMX1 and exogenous EGFP reporter genes in GFP-U2OS, EGFP-JURKAT cells; assay: Delivery of multiple RGEN/gRNA complexes: EMX1 and EGFP editing; assay type: cell-based, human
Procedure: RNAiMAX delivery was used as positive control. Cells were treated as described previously and CAS9-induced NHEJ analyzed 72 hr after transfection. […] The deletion (indel) frequency in the EMX1 gene was quantified using the T7E1 assay and loss of EGFP expression was monitored by flow cytometry. Data for on-target mutations induced by RGEN/gRNA are reported as an average of 3 separate experiments.

[6] = test system: endogenous EMX1, AAVS and HPRT genes in Mouse (ESF-158) embryonic stem cells; assay: Delivery of multiple RGEN:gRNA complexes: EMX1, AAVS, HPRT editing in mouse ES cells (T7E1); assay type: cell-based
Procedure: as §1, §2

[7] = test system: endogenous EMX1 gene in U2OS, HEPG2, K562 cells and primary human fibroblasts; assay: EMX1 editing from CPP delivery of CAS9 protein/gRNA (T7E1); assay type: cell-based; conditions: each of the cell types tested; 2.5 μg/5 μg CAS9/gRNA
Procedure: CPP/CAS9/gRNA complexes were prepared by mixing preloaded CAS9/gRNA complexes (2.5 μg/5 μg CAS9/gRNA) with CPP peptides at a 20:1 molar ratio of CPP to cargo and incubating for 30 min at 37° C. prior to cell transfection. Cells were transfected according to the protocols described in Example 13a, and RNAiMAX-mediated delivery (Invitrogen Thermo Fisher France) was used as a control. EMX1 gene editing was analyzed at day 3 and day 6 by T7E1 assay and quantified using a Fragment Analyzer System.

[8] = Particle size, polydispersity and zeta potential with different cargoes (Zetasizer NANO ZS P); assay type: physicochemical; conditions: 20:1
Procedure: The CPP/CAS9-protein, CPP/CAS9-protein/sgRNA, CPP/CAS9-mRNA, CPP/CAS-mRNA/sgRNA particles were characterized; the mean size, polydispersity, and zeta potential were measured with a Zetasizer NANO ZS P apparatus (Malvern Ltd).
The mean size and the polydispersity of the CCP/cargo complexes were determined at 25° C. for 5 min per measurement and zeta potential was measured with a Zetasizer NANO ZS P apparatus (Malvern Ltd).

primary human T cells = assay: CAS9 protein expression in primary human T cells after CAS9 mRNA or plasmid delivery (ELISA); assay type: cell-based; conditions: day 3
Procedure: T cells were isolated from PBMCs using anti-CD3/anti-CD28 antibodies bound to paramagnetic beads (Dynabeads ClinExVivo CD3/CD28, Invitrogen) at a ratio of 3:1 (beads:cells). The cells and beads were co-incubated for 2 hours at room temperature and CD3^+ cell enrichment was performed using Dynal ClinExVIVO MPC magnet (Thermo Fisher). The anti-CD3/anti-CD28 paramagnetic beads were removed, washed and concentrated. Cells in the CD3^+ fraction were resuspended in activation media at a concentration of 1×10^6 cells/ml with AIM-V medium (Thermo Fishers) supplemented with 10% fetal calf serum, 300 IU/ml IL2 and 50 ng/ml OKT3 (MuromonAB-CD3) for two days.
CPP/CAS9 complexes were formed by mixing the CAS9 mRNA (0.5 μg) with CPP at a 20:1 molar ratio of CPP:CAS9 mRNA and incubating for 30 min at 37° C. prior to cell transfection. CPP/CAS9-expressing plasmid complexes were formed by mixing the CAS9-expressing plasmid (Addgene MLM3639-Plasmid #42252) (0.5 μg) with CPP at a 20:1 molar ratio of CPP:plasmid and incubating for 30 min at 37° C. prior to cell transfection.
Cells were transfected according to the protocol for suspension cells described in Example 13a. RNAiMAX and lipofectamine 2000 lipid-based delivery methods (Invitrogen Thermo Fisher France) were used as controls, and transfections were performed following the manufacturer's instructions. CAS9 protein expression level was analyzed at multiple time points over a period of 10 days as determine by ELISA on protein extracts using antibodies against CRISPR/Cas9 obtained from Diagenode (Diagenode cat. No. C15200223) and ABCAM (clone 7A9-ab191468).

[9] = test system: Luciferase reporter gene in the liver; conditions: free ADGN-100a peptide
Procedure: At 72 hours post injection, animals were sacrificed and the following tissues were collected: liver, lung, kidney, spleen, and blood. Luciferase was quantified by fluorescence in the liver. Tissues were homogenized and CAS9 expression was analyzed by ELISA using Cas9 monoclonal antibody (SBI clone 7A9).

[10] = test system: endogenous hPD1 gene in JURKAT and K562 cells; assay: hPD1 gene editing in T cell lines (T7E1 assay); assay type: cell-based, human
Procedure: CAS9 protein was preloaded with purified sgRNA at a molar ratio of 1:1 and incubated for 10 min prior to forming complexes with peptides.
5×10^6 cells were washed twice with DPBS by centrifuging at 800 rpm for 5 minutes and resuspended in 100 ^l transfection buffer, and then transferred into the electroporation cuvette. An optimized program selected for both high transfection and high efficiency on T cells was used. After electroporation, cells were resuspended in 500 ^l pre-warmed AIM-V medium containing 10% FBS and incubated at 37° C. in 5% CO2. The transfection efficiency was evaluated after 48 hr by flow cytometry or T7E1 assay.
RNAiMAX delivery method was used as positive control. Cells were either resuspended in or overlaid with 100 μl of preformed complexes, incubated for 3-5 min, and then 300 μl of DMEM was added. […] The indel frequency in the hPD1 gene was quantified using the T7E1 assay.

## CC(C)C[C@H](NC(=O)[C@H](CCCNC(=N)N)NC(=O)[C@H](Cc1c[nH]c2ccccc12)NC(=O)[C@H](CCCNC(=N)N)NC(=O)[C@H](Cc1c[nH]c2ccccc12)NC(=O)CNC(=O)[C@H](C)NC(=O)[C@H](CO)NC(=O)[C@H](CCCNC(=N)N)NC(=O)[C@H](Cc1c[nH]c2ccccc12)NC(=O)[C@H](CCCCN)NC(=O)CCN)C(=O)N[C@@H](Cc1c[nH]c2ccccc12)C(=O)N[C@@H](CCCNC(=N)N)C(=O)N[C@H](C(=O)N[C@@H](CCCNC(=N)N)C(=O)N[C@@H](CO)C(=O)N[C@@H](Cc1c[nH]c2ccccc12)C(=O)N[C@@H](CO)C(=O)N[C@@H](CCCNC(=N)N)C(=O)O)C(C)C [ADGN-100a]
[1]
  mean indel frequencies: about 60%
JURKAT and K562 cells
  toxicity: no toxicity
[2]; EGFP-JURKAT
  reduction of EGFP-positive cells: 81%
[2]; HEK, 1 nM CAS9:gRNA
  reduction of number of EGFP-expressing cells: 62%
[2]; HEK
  decrease in EGFP expression: 86%
[2]; JURKAT, 1 nM CAS9:gRNA
  reduction of EGFP-expressing cells / loss of EGFP expression: 51%
[2]; U2OS, 1 nM CAS9:gRNA
  reduction of number of EGFP-expressing cells: 57%
[2]; U2OS
  decrease in EGFP expression: 87%
[3]; H9, AAVS
  Mean indel Frequency ± S.E.M: 60 ± 5%
[3]; H9, EMX1
  Mean indel Frequency ± S.E.M: 61 ± 6%
[3]; H9, HPRT
  Mean indel Frequency ± S.E.M: 61 ± 5%
[3]; U2OS, AAVS
  Mean indel Frequency ± S.E.M: 72 ± 4%
[3]; U2OS, EMX1, 20 nM each complex
  Mean indel Frequency ± S.E.M: 78 ± 7%
[3]; U2OS, HPRT
  Mean indel Frequency ± S.E.M: 78 ± 6%
[4]
  mean indel frequencies: about 30%
Swiss mice
  CAS9 protein expression: No significant increase
U2OS cells
  CAS9 protein expression: dose-dependent expression of CAS9 protein
[5]; JURKAT, EGFP
  Mean indel Frequency ± S.E.M: 78 ± 4%
[5]; JURKAT, EMX1
  Mean indel Frequency ± S.E.M: 76 ± 7%
[5]; U2OS, EGFP, 25 nM each complex
  Mean indel Frequency ± S.E.M: 77 ± 6%
[5]; U2OS, EMX1
  Mean indel Frequency ± S.E.M: 72 ± 8%
[6]; AAVS
  Mean indel Frequency ± S.E.M: 71 ± 5%
[6]; EMX1
  Mean indel Frequency ± S.E.M: 75 ± 5%
[6]; HPRT
  Mean indel Frequency ± S.E.M: 70 ± 4%
[7]
  mean indel frequencies: 60-65%
[8]; with CAS9-mRNA and CAS9-mRNA/gRNA complex
  formation of stable nanoparticles: able to form stable nanoparticles
[8]; with CAS9-mRNA and CAS9-mRNA/gRNA
  Mean diameter: about 75 nm
[8]; with CAS9-protein and CAS9-protein/gRNA complex
  formation of stable nanoparticles: able to form stable nanoparticles
[8]; with CAS9-protein and CAS9-protein/gRNA
  Mean diameter: about 100 nm
Primary human T cells; CAS9-expressing plasmid 0.5 μg
  ELISA signal for CAS9 protein expression: about 4 times the background
Primary human T cells; CAS9 mRNA 0.5 μg
  ELISA signal for CAS9 protein expression: about 15 times the background
[9]
  change in luciferase expression: no change in luciferase expression
[10]; JURKAT, CAS9/sgRNA 2.5 μg/5 μg
  Mean indel Frequency ± s.e.m: 70 ± 5%
[10]; JURKAT, CAS9/sgRNA 5 μg/10 μg
  Mean indel Frequency ± s.e.m: 72%
[10]; JURKAT, CAS9/sgRNA 5 μg/10 μg, listed as ADGN400a
  Mean indel Frequency ± s.e.m: 72 ± 2%
[10]; K562, CAS9/sgRNA 2.5 μg/5 μg
  Mean indel Frequency ± s.e.m: 68 ± 2%
[10]; K562, CAS9/sgRNA 5 μg/10 μg
  Mean indel Frequency ± s.e.m: 71%
[10]; K562, CAS9/sgRNA 5 μg/10 μg, listed as ADGN400a
  Mean indel Frequency ± s.e.m: 71 ± 5%
